Biological target: T1, Human AMPK α2β2γ1 (Homo sapiens, UniProt O43741+P54619+P54646)
T1 construct: The full length cDNAs of human AMPK β2 (NM_005399.3) and human AMPK α2 (NM_006252.3); The full length cDNAs of human AMPK β2 (NM_005399.3); the full length cDNA of human AMPK γ1 (NM_002733.3); 6xHis (N); made in house; host or cells: Escherichia coli BL21 CodonPlus (DE3)-RIL (AMPK); BL21 Star (DE3) (CaMKK2)
Assay: Test Example 2: AMPK activator evaluation, mobility-shift kinase assay after CaMKK2 phosphorylation
Type: biochemical
Settings: for EC150: compound concentration showing 150% relative to the control (100%); for Emax: maximum rate of increase in activity within the measurement range, control = 100%
Method: The full length cDNAs of human AMPK β2 (NM_005399.3) and human AMPK α2 (NM_006252.3) were inserted into the MCS1 and MCS2 of the pETDuet-1 vector to prepare a human AMPK β2 and human AMPK α2 (6× His tag at the 5′ terminus) expressing plasmid. The plasmid was cotransfected with an expression plasmid, in which the full length cDNA of human AMPK γ1 (NM_002733.3) had been inserted into pET28b(+), into BL21 CodonPlus (DE3)-RIL to obtain an expression strain. The expression strain was cultured in TB medium, followed by induction with 0.5 mM IPTG, and cultured at 25° C. for 3 hours and then harvested. After ultrasonication, supernatant was collected and applied to Histrap FF column (GE) and RESOUECE Q column (GE) to prepare 12.5 mg of purified sample containing three types of subunit from 1.8 L of broth.
An expression vector, in which the full length cDNA of human CAMKK β (NM_172226.1) had been inserted into pGEX-6P-3, was transfected into BL21 Star (DE3). The expression strain was cultured in TB medium, followed by induction with 0.5 mM IPTG, and cultured at 25° C. for 3 hours and then harvested. After ultrasonication, supernatant was collected and applied to GSTrap FF column (GE) to prepare 14 mg of GST-fused CAMKK β from 720 ml of broth.
Thus, phosphorylation treatment was carried out as pretreatment.
Human AMPK α2β2γ1 in an amount to give a conversion rate of approximately 10% by reaction for 2 hours, and CaMKK2 in an amount capable of sufficiently imparting activity to AMPK for one hour were mixed in a buffer solution consisting of a 50 mM HEPES-NaOH buffer solution (pH 7.0), 100 mM NaCl, 5 mM magnesium chloride, 0.1% bovine serum albumin, 0.2 mM sodium orthovanadate(V), 1 mM ethylene glycol-bis(2-aminoethyl ether)-N,N,N′,N′-tetraacetic acid (EGTA), 5 mM disodium β-glycerophosphate, 1 mM dithiothreitol and 0.2 mM ATP, and the obtained liquid was left to stand at 25° C. for 1 to 1.5 hours to sufficiently phosphorylate AMPK.
After that, to the enzyme liquid, which had been subjected to phosphorylation treatment, a compound dissolved in DMSO was added so as to have a 1% DMSO concentration. The obtained liquid was left to stand for 10 minutes.
To the liquid, a substrate solution consisting of a 50 mM HEPES-NaOH buffer solution (pH 7.0), 100 mM NaCl, 10 mM magnesium chloride, 0.1% bovine serum albumin, 0.2 mM sodium orthovanadate(V), 1 mM ethylene glycol-bis(2-aminoethyl ether)-N,N,N′,N′-tetraacetic acid (EGTA), 5 mM disodium β-glycerophosphate, 2 mM dithiothreitol, 0.4 mM ATP and 3 μM FL-Peptide 7 (manufactured by Caliper Life Sciences, Inc.) was added in equal amount (10 μl in total). The obtained liquid was allowed to react at 25° C. for 2 hours, and 10 μl of 20 mM EDTA was then added thereto to stop the reaction.
To detect phosphorylated fluorescent substrates, the reaction liquid was applied to a measuring device, LabChip EZ Reader II manufactured by Caliper Life Science, Inc., for detecting fluorescence by using differences in mobility due to differences in charge. The setting conditions for the device were pressure, −1.5 PSI; upstream voltage, −2250 V; downstream voltage, −400 V; post sample buffer sip time, 40 seconds; final delay, 120 seconds; and peak order, Product First.
A conversion rate was calculated from the peak heights of the resulting substrate and product. The conversion rate when not containing a compound was used as a control, and a concentration dependent curve was made by plotting the rate of increase in activity to the control at each concentration of a compound.

T1 sequence (P54646 whole entry): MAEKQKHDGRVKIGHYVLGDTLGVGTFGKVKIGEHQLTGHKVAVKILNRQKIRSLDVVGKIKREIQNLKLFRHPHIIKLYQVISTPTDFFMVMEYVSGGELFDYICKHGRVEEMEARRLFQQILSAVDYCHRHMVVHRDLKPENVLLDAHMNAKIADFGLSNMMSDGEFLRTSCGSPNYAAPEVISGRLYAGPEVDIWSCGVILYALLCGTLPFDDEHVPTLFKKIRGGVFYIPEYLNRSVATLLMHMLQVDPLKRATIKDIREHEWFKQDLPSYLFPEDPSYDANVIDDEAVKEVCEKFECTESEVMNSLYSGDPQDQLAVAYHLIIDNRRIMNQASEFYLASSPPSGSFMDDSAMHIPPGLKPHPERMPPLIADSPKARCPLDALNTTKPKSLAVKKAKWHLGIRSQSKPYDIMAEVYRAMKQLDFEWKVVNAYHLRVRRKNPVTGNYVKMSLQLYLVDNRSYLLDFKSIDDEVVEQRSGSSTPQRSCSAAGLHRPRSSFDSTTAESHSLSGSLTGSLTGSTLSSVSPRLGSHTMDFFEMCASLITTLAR
T1 sequence (O43741 whole entry): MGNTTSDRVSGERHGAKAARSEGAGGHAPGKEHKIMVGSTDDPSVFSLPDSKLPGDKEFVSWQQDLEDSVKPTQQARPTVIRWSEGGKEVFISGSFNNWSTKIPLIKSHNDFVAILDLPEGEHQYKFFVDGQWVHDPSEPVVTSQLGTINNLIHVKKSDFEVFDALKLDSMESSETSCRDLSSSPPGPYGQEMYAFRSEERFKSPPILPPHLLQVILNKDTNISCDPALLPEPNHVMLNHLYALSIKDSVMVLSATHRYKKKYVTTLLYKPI
T1 sequence (P54619 whole entry): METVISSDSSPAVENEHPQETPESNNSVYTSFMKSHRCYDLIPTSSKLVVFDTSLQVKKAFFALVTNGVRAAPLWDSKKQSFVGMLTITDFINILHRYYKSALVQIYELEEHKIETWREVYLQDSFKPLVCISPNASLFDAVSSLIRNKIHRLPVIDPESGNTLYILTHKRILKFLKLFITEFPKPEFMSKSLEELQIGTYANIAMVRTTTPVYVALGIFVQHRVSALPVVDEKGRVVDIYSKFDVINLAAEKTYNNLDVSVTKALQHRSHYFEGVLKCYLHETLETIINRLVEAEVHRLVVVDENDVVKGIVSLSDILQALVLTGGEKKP

Row | SMILES | EC150 [nM] | Emax [%]
1 | CC(=O)NC(C)(C)c1ccc(Oc2nc3nc(NCc4c(F)cccc4F)c(Cl)cc3[nH]2)cn1 [Compound I-1-126] | 170 | 332
2 | COCCOc1cc(F)c(CSc2nc3nc(O[C@@H]4CO[C@H]5[C@@H]4OC[C@H]5O)[nH]c3cc2Cl)c(F)c1 [Compound I-1-4] | 40 | 766
3 | COCCOc1cc(F)c2c(c1)OCC2Nc1nc2nc(O[C@@H]3CO[C@H]4[C@@H]3OC[C@H]4O)[nH]c2cc1Cl (stereo partly shown) [Compound I-2-185] | 6 | 569
4 | O[C@@H]1CO[C@H]2[C@@H]1OC[C@H]2Oc1nc2nc(/C=C/c3ccc(F)cc3F)c(Cl)cc2[nH]1 [Compound I-2-244] | 92 | 517
5 | OCCO[C@@H]1CO[C@H]2[C@@H]1OC[C@H]2Oc1nc2nc(NCc3c(F)cccc3F)c(Cl)cc2[nH]1 [Compound I-1-119] | 84 | 432
6 | O[C@@H]1CO[C@H]2[C@@H]1OC[C@H]2Oc1nc2nc(NC3COc4ccccc43)c(Cl)cc2[nH]1 (stereo partly shown) [Compound I-1-11] | 170 | 512
7 | O[C@@H]1CO[C@H]2[C@@H]1OC[C@H]2Oc1nc2nc(NCc3cccs3)c(Cl)cc2[nH]1 [Compound I-1-52] | 100 | 407
8 | O[C@@H]1CO[C@H]2[C@@H]1OC[C@H]2Oc1nc2nc(NCc3c(F)cccc3F)c(C(F)(F)F)cc2[nH]1 [Compound I-2-22] | 130 | 480
9 | O=C(Nc1nc2nc(O[C@@H]3CO[C@H]4[C@@H]3OC[C@H]4O)[nH]c2cc1Cl)c1ccc2ccccc2c1 [Compound I-1-80] | 880 | 397
10 | COCCOc1cc(F)c2c(c1)CC[C@@H]2Nc1nc2nc(O[C@@H]3CO[C@H]4[C@@H]3OC[C@H]4O)[nH]c2cc1Cl [Compound I-2-220] | 1.1 | 669
11 | COC/C=C/c1cc(F)c2c(c1)CCC2Nc1nc2nc(O[C@@H]3CO[C@H]4[C@@H]3OC[C@H]4O)[nH]c2cc1Cl (stereo partly shown) [Compound I-2-238] | 4.1 | 553
12 | O[C@@H]1CO[C@H]2[C@@H]1OC[C@H]2Oc1nc2nc(NCc3c(F)cccc3F)c(F)cc2[nH]1 [Compound I-1-10] | 740 | 406
13 | CCc1ccc(CNc2nc3nc(O[C@@H]4CO[C@H]5[C@@H]4OC[C@H]5O)[nH]c3cc2Cl)s1 [Compound I-2-75] | 26 | 542
14 | O=C(c1cc(F)c2c(c1)CCC2Nc1nc2nc(O[C@@H]3CO[C@H]4[C@@H]3OC[C@H]4O)[nH]c2cc1Cl)N1CCCCC1 (stereo partly shown) [Compound I-2-147] | 4.5 | 532
15 | OCCn1ccc(CNc2nc3nc(O[C@@H]4CO[C@H]5[C@@H]4OC[C@H]5O)[nH]c3cc2Cl)n1 [Compound I-2-62] | 94 | 388
16 | O[C@@H]1CO[C@H]2[C@@H]1OC[C@H]2Oc1nc2nc(NCc3c(F)cc(OCC4CNCCO4)cc3F)c(Cl)cc2[nH]1 (stereo partly shown) [Compound I-2-119] | 13 | 581
17 | O[C@@H]1CO[C@H]2[C@@H]1OC[C@H]2Oc1nc2nc(NCc3ccccc3F)c(Cl)cc2[nH]1 [Compound I-1-109] | 48 | 499
18 | CCOCCOc1cc(F)c2c(c1)CCC2Nc1nc2nc(O[C@@H]3CO[C@H]4[C@@H]3OC[C@H]4O)[nH]c2cc1Cl (stereo partly shown) [Compound I-2-223] | 2.8 | 649

Row | SMILES | EC150 [nM] | Emax [%]
19 | Cc1cccc(F)c1CNc1nc2nc(O[C@@H]3CO[C@H]4[C@@H]3OC[C@H]4O)[nH]c2cc1Cl [Compound I-1-6] | 21 | 496
20 | CS(=O)(=O)NCCOc1cc(F)c(CNc2nc3nc(O[C@@H]4CO[C@H]5[C@@H]4OC[C@H]5O)[nH]c3cc2Cl)c(F)c1 [Compound I-2-93] | 9.9 | 602
21 | O=C(c1cc(F)c2c(c1)CCC2Nc1nc2nc(O[C@@H]3CO[C@H]4[C@@H]3OC[C@H]4O)[nH]c2cc1Cl)N1CC[C@H](F)C1 (stereo partly shown) [Compound I-2-153] | 5.2 | 546
22 | CN(C)CCCc1cc(F)c(CNc2nc3nc(O[C@@H]4CO[C@H]5[C@@H]4OC[C@H]5O)[nH]c3cc2Cl)c(F)c1 [Compound I-2-222] | 16 | 532
23 | Cn1cc(-c2cc(F)c3c(c2)CCC3Nc2nc3nc(O[C@@H]4CO[C@H]5[C@@H]4OC[C@H]5O)[nH]c3cc2Cl)cn1 (stereo partly shown) [Compound I-2-239] | 5.6 | 535
24 | O[C@@H]1CO[C@H]2[C@@H]1OC[C@H]2Oc1nc2nc(NCc3c(F)cc(C4=CCNCC4)cc3F)c(Cl)cc2[nH]1 [Compound I-2-209] | 22 | 558
25 | Cn1cc(-c2cc(F)c(CNc3nc4nc(O[C@@H]5CO[C@H]6[C@@H]5OC[C@H]6O)[nH]c4cc3Cl)c(F)c2)cn1 [Compound I-1-39] | 26 | 506
26 | O[C@@H]1CO[C@H]2[C@@H]1OC[C@H]2Oc1nc2nc(NCc3c(F)cc(-c4cnn(CCN5CCOCC5)c4)cc3F)c(Cl)cc2[nH]1 [Compound I-2-228] | 8.5 | 528
27 | CC(C)(O)CCc1cc(F)c(CNc2nc3nc(O[C@@H]4CO[C@H]5[C@@H]4OC[C@H]5O)[nH]c3cc2Cl)c(F)c1 [Compound I-2-233] | 9.3 | 507
28 | O=C1CCCN1CCOc1cc(F)c(CNc2nc3nc(O[C@@H]4CO[C@H]5[C@@H]4OC[C@H]5O)[nH]c3cc2Cl)c(F)c1 [Compound I-2-188] | 15 | 603
29 | COCCOc1cc(F)c2c(c1)CCC2Nc1nc2nc(O[C@@H]3CO[C@H]4[C@@H]3OC[C@H]4O)[nH]c2cc1Cl (stereo partly shown) [Compound I-1-38] | 1.2 | 568
30 | O[C@@H]1CO[C@H]2[C@@H]1OC[C@H]2Oc1nc2nc(NC3CCc4cccnc43)c(Cl)cc2[nH]1 (stereo partly shown) [Compound I-1-116] | 94 | 450
31 | Cn1cc(-c2cc(F)c(CNc3nc4nc(O[C@@H]5CO[C@H]6[C@@H]5OC[C@H]6O)[nH]c4cc3Cl)c(F)c2)ccc1=O [Compound I-2-217] | 47 | 637
32 | CN1CCC(Oc2cc(F)c(CNc3nc4nc(O[C@@H]5CO[C@H]6[C@@H]5OC[C@H]6O)[nH]c4cc3Cl)c(F)c2)CC1 [Compound I-2-192] | 7.6 | 568
33 | O[C@@H]1CO[C@H]2[C@@H]1OC[C@H]2Oc1nc2nc(NC3CCc4ccccc43)c(Cl)cc2[nH]1 (stereo partly shown) [Compound I-1-8] | 67 | 617
34 | COCCOc1cc(F)c(CNc2nc3nc(O[C@@H]4CO[C@H]5[C@@H]4OC[C@H]5O)[nH]c3cc2Cl)c(F)c1 [Compound I-1-13] | 17 | 838
35 | CS(=O)(=O)CCCOc1cc(F)c(CNc2nc3nc(O[C@@H]4CO[C@H]5[C@@H]4OC[C@H]5O)[nH]c3cc2Cl)c(F)c1 [Compound I-2-91] | 5.4 | 532

Reference: US10123994B2, “Heterocyclic derivative having AMPK-activating activity” (SHIONOGI & CO., LTD., priority 2014, dated 2018)
